Data published in US12486265B2, “2-aminopyrimidine compounds and pharmaceutical compositions and uses thereof” (Shanghai Zhimeng Biopharma, Inc., priority 2019, dated 2025).
pEC50: −log10 of the molar value. Where two headings read alike, the source gives them in different places.

Assays:
human TLR7 = target: T1, human TLR7 (Homo sapiens, UniProt Q9NYK1); assay: hTLR7 receptor binding activity in vitro (HEK-Blue hTLR7 SEAP reporter); format: cell-based; settings: HEK-Blue hTLR7 cells, 24 hours, SEAP OD650
T1 construct: host or cells: HEK-Blue hTLR7 (HEK293-derived)
T1 sequence (Q9NYK1 27-1049): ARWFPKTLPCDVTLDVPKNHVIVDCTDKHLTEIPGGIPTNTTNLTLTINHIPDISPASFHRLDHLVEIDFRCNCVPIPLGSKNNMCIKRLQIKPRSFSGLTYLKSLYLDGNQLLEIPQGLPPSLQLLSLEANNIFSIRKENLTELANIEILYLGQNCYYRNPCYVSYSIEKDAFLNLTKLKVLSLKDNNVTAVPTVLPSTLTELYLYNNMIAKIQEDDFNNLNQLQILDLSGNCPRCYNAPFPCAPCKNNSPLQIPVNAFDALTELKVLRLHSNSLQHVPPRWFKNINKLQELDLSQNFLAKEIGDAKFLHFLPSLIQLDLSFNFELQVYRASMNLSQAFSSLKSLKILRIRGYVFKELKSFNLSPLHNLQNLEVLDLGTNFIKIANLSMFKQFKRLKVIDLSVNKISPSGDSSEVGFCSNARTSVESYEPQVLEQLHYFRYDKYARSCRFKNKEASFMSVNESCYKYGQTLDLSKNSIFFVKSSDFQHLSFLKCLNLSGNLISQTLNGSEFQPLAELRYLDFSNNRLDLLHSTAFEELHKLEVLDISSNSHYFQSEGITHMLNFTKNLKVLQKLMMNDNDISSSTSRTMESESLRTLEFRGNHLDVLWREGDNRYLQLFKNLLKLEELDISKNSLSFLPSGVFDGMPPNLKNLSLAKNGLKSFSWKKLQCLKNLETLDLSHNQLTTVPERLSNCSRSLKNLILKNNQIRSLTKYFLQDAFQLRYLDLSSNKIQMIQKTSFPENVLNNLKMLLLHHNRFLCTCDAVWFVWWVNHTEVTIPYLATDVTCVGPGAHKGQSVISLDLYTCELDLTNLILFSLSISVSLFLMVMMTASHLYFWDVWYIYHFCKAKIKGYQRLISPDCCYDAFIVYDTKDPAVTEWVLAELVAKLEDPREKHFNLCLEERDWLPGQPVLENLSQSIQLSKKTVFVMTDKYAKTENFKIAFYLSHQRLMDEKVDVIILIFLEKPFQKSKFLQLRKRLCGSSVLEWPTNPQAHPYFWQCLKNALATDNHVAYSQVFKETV
Experimental: (§1) The ability of the compounds of the present invention to activate TLR7 and TLR8 respectively was evaluated by using receptor binding experiments in vitro.
(§2) HEK-Blue™ hTLR7 (article number: hkb-htlr7) and HEK-Blue™ hTLR8 (article number: hkb-htlr8) cells were purchased from InvivoGen company. HEK-Blue™ hTLR7/8 cells can indicate the activation of TLR7/8 by detecting the activation level of NF-κB signaling pathway. HEK-Blue™ hTLR7/8 cells are derived from human embryonic kidney 293 cells, stably expressing human TLR7 or human TLR8, respectively, and can induce expression of secretory alkaline phosphatase (SEAP) to report gene system. The expression of SEAP reporter gene is regulated by IFN-β simplified promoter, which is composed of 5 NF-κB binding sequences and AP-1 binding sequences. Therefore, when TLR7/8 is activated in these two cells, NF-κB and AP-1 will be activated, and SEAP expression and extracellular secretion will be induced. By detecting the activity of SEAP outside the cell, the activation level of TLR7/8 can be indicated.
(§3) • (1) The compound was added to the cell culture plate after a 3-fold gradient dilution, with a total of 10 concentrations, with two duplicates wells for each concentration.
(§4) [drawing 45] per well; • (2) HEK-Blue™ hTLR7/8 cells were digested separately, counted, and the cells at 5.0×10^4 cells per well were added to a 96-well cell culture plate containing compounds; (3) The cells added with the compound were placed in a 5% CO2 incubator at 37° C. for 24 hours; • (4) Compound activity detection: took 20 µl/well cell culture supernatant and added it to 96-well plate containing 180 μl QUANTI-BLUE™ reagent. Incubated at 37° C. for one hour, and the optical density absorption value (OD650) at 650 nm was detected with a multifunctional microplate reader; • (5) Cell activity detection: operated according to the Celltiter-Glo instructions, and the chemiluminescence signal (RLU) was detected by a multifunctional microplate reader Envision; • (6) Data analysis: • Compound activity: OD650 value was analyzed by GraphPad Prism software, and the dose effect curve of the compound was fitted to calculate the EC50 value of the compound.

[1] = Cell activity detection (Celltiter-Glo) in HEK-Blue hTLR8 cells; format: cell-based; settings: human
Experimental: as §4
(§5) Cell activity detection: cell activity was analyzed by GraphPad Prism software, and the dose effect curve of the compound was fitted to calculate the CC50 value of the compound to the cell.

IL-12p40 in human PBMC = assay: IL-12p40 induction in human PBMC (ELISA); format: cell-based
Source text: The human peripheral blood mononuclear cell (PBMC) experiment and the IL-12p40 ELISA detection method are used to detect the IL-12p40 inducing activity of the compound of the present invention in human PBMC.
Toll-like receptors (TLRs) are a series of switches that regulate the human immune system and occupy an important position in both innate (non-specific) and specific immunity. TLR8 is mainly expressed in monocytes, macrophages and myeloid dendritic cells. TLR8 is expressed on the Endosome intima of the cell and recognizes single-stranded RNA with high GU (guanylate/uridonic acid) content. After TLR8 signaling pathway is activated, it will activate the secretion of a series of downstream cytokines (IL-12, TNF-alpha, IFN-gamma, etc.), causing antiviral immune response. In this experiment, the compound was used to stimulate human PBMC, and the level of IL-12p40 protein in the culture supernatant was detected to evaluate the activation level of the compound on the TLR8 signaling pathway.
• (1) The compound was added to the cell plate after a 3-fold gradient dilution, with a total of 8 concentrations, and two duplicate wells for each concentration.
(§6) Resuspended, cell number was counted, and the cell suspension was adjusted to 2.5×10^6 cells/ml with the culture medium.

[2] = Cell activity detection (Celltiter-Glo) in human PBMC; format: cell-based
Experimental: as §6, §5

[3] = Pharmacokinetic study in male SD rats; format: in vivo; settings: rat, plasma
Experimental: Pharmacokinetic study: 6 healthy male SD rats (SPF grade) were divided into 2 groups and 3 rats/group. […] Within half an hour, plasma was taken after centrifugation (6000 rpm, 8 minutes, 4° C.) and frozen at −20° C. for later use. Experimental results: According to the obtained blood drug concentration data, the non-compartmental model of WinNonlin® 8.1 software (Certara, USA) was used to calculate the pharmacokinetic parameters after administration.

[4] = Liver-blood ratio study in male SD rats; format: in vivo; settings: rat, liver / plasma, single oral administration; for Kp at 1 h: time point 1 h; for Kp at 4 h: time point 4 h
Experimental: Liver-blood ratio study: 4 healthy male SD rats (SPF grade) were divided into 2 groups and 2 rats/group. After fasting overnight, compound A and compound X were administrated orally respectively. Blood was taken through cardiac puncture at time points 1 and 4 hours, at least 0.5 mL of whole blood was collected to EDTA-K2 anticoagulant tube, and plasma was taken after centrifugation (6000 rpm, 8 minutes, 4° C.) within half an hour and frozen at −20° C. for later use. At the same time, liver tissue was collected, rinsed with normal saline, then blotted dry with absorbent paper, weighed, and frozen at −20° C. for later use.

human TLR8 = target: T2, human TLR8 (Homo sapiens, UniProt Q9NR97); assay: hTLR8 receptor binding activity in vitro (HEK-Blue hTLR8 SEAP reporter); format: cell-based; settings: for pEC50: HEK-Blue hTLR8 cells, 24 hours, SEAP OD650; for selectivity for TLR8 activation: TLR8 versus TLR7, compared with compound X
T2 construct: host or cells: HEK-Blue hTLR8 (HEK293-derived)
T2 sequence (Q9NR97 27-1041): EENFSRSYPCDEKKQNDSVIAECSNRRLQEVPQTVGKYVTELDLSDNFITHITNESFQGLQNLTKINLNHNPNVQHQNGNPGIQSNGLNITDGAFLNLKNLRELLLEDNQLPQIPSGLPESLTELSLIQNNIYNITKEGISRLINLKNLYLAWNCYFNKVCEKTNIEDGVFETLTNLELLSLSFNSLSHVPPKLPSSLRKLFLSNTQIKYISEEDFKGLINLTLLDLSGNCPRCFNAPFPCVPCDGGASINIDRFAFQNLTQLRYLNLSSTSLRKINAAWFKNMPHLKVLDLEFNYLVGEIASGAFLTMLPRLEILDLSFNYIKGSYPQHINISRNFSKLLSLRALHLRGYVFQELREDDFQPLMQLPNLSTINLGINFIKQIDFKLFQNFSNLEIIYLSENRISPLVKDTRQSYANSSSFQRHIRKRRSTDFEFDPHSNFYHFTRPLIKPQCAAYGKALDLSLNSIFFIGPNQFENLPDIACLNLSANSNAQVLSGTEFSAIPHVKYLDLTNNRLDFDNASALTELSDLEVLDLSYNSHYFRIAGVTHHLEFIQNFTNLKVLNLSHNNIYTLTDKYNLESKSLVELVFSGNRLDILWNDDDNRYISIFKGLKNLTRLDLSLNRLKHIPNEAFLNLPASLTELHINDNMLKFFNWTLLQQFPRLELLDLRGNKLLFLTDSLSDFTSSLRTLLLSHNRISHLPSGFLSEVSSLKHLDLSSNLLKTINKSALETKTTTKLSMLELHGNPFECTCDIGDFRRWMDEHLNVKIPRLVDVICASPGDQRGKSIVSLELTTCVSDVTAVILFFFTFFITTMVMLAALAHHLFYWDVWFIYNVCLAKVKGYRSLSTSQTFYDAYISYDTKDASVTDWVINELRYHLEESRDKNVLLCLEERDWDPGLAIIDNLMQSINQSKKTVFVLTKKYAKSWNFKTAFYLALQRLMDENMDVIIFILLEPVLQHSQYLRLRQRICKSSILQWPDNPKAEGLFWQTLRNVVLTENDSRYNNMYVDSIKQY
Experimental: as §1, §2, §3, §4

[5] = 24 hours, Celltiter-Glo, read-out: CC50
[6] = read-out: cytotoxic CC50 on human PBMC
[7] = human PBMC, 24 hours, ELISA OD450, read-out: IL-12p40 EC50

pEC50 (human TLR7) | pEC50 (human TLR8) | Compound | CC50 at 24 h [1] | CC50 at 24 h [2, 5] | CC50 at 24 h [2, 6] | Kp at 1 h [4] | Kp at 4 h [4] | selectivity for TLR8 activation (human TLR8) | pEC50 (IL-12p40 in human PBMC; [7]) | further results
4.55 | 7.54 | CCCC[C@](C)(CNC(C)=O)Nc1nc(N)nc2cc(NC3CC3)cnc12 [Compound B] | > 33 µM | 28.9 µM | > 10 µM |  |  | higher selectivity for TLR8 activation than compound X | 7.70 | pEC50 (IL-12p40 in human PBMC; human PBMC, read-out: induced activity EC50 on IL-12p40): 7.70
 |  | CCOCc1nc2c(N)nc3ccccc3c2n1CC(C)(C)O [Compound R848, reference compound] | > 71 µM | > 71 µM |  |  |  |  | 6.68 | 
< 4.48 | 6.68 | CCCC[C@](C)(CNC(C)=O)Nc1nc(N)nc2cc(C(=O)N3CC4(CCN(c5ccccc5)CC4)C3)cnc12 [Compound T] | > 33 µM |  |  |  |  |  |  | 
< 4.48 | 7.31 | CCCC[C@](C)(CNC(C)=O)Nc1nc(N)nc2cc(C(C)=O)cnc12 [Compound V] | > 33 µM |  |  |  |  | higher selectivity for TLR8 activation than compound X |  | 
4.92 | 7.40 | CCCC[C@](C)(CNC(C)=O)Nc1nc(N)nc2cc(CC)cnc12 [Compound X, reference compound] | > 33 µM |  |  | 6.9 | 23.6 |  |  | 

Compound | pEC50 (human TLR7) | pEC50 (human TLR8) | CC50 at 24 h [1] | CC50 at 24 h [2, 5] | CC50 at 24 h [2, 6] | Kp at 1 h [4] | Kp at 4 h [4] | selectivity for TLR8 activation (human TLR8) | pEC50 (IL-12p40 in human PBMC; [7]) | further results
CCCC[C@](C)(CNC(C)=O)Nc1nc(N)nc2cc(C(=O)N(C)C)cnc12 [Compound A] | < 4.48 |  | > 33 µM | > 33 µM | > 10 µM | 12.3 | 34.4 |  |  | pEC50 (IL-12p40 in human PBMC; Homo sapiens, PBMC, 24 h, read-out: IL-12p40 EC50): 7.51; pEC50 (IL-12p40 in human PBMC; Homo sapiens, PBMC, read-out: induced activity EC50 on IL-12p40): 7.51; AUC(0-inf) ([3]; IV 5 mg/kg): 877 ng·h/mL; AUC(0-t) ([3]; IV 5 mg/kg): 876 ng·h/mL; Cmax ([3]; IV 5 mg/kg): 1830 ng/mL; MRT last ([3]; IV 5 mg/kg): 22.8 min; Tmax ([3]; IV 5 mg/kg): 4.98 min; clearance ([3]; IV 5 mg/kg): 95 mL/min/kg; half-life ([3]; IV 5 mg/kg): 40.8 min; Vd ([3]; IV 5 mg/kg, read-out: Vz): 5.59 L/kg; AUC(0-inf) ([3]; PO 50 mg/kg): 1260 ng·h/mL; AUC(0-t) ([3]; PO 50 mg/kg): 1250 ng·h/mL; Cmax ([3]; PO 50 mg/kg): 1170 ng/mL; MRT last ([3]; PO 50 mg/kg): 116 min; Tmax ([3]; PO 50 mg/kg): 25.2 min; bioavailability ([3]; PO 50 mg/kg): 14.2%; half-life ([3]; PO 50 mg/kg): 345 min
